# Measured values as given in patent US9833433B1, “Compositions, methods of use, and methods of treatment” (priority 2013, dated 2017).
# Assays:
# fear memory = assay: Fear conditioning test (contextual memory); format: in vivo, mice; settings: 10 mg/kg once a day for 7 days; freezing 24 hrs after last injection
# Procedure: The classic Morris water maze and fear conditioning tests were performed to determine spatial and fear memory as described previously (Chen et al., 2012). The ‘open field’ test was conducted to detect the locomotor activity and the bar test was used to detect catalepsy (Egashira et al., 2007).
# Hippocampus-dependent contextual memory was determined using a fear-conditioning working-station (Coulbourn Instruments, Allentown, Pa.) and a one-trial protocol as describe previously (Chen et al., 2006a; 2006b). Mice were individually put into the shock chamber and allowed to freely explore the environment for 150 seconds. Immediately after this, a tone at 90 dB and 2,800 Hz (CS) was delivered for 30 seconds, and at the last 2 seconds a foot shock at 0.8 mA was delivered to the mice for 2 seconds (US). After the pairing of CS/US, mice were allowed to stay in the chamber for another 30 seconds and then returned to their home cages. Then the animals started receiving vehicle, Δ^9-THC (10 mg/kg), NS398 (10 mg/kg), Δ^9-THC+NS398 once a day for 7 days. Fear memory test was conducted 24 hours after the cessation of the last injections. For contextual conditioning, mice were individually put back into the chamber where they received the shock and the freezing response was recorded for 5 minutes with a sampling method at an interval of 5 seconds. […]
# [1] = test system: synaptic release of glutamate; assay: Miniature spontaneous EPSCs (mEPSCs) in cultured hippocampal neurons; format: cell-based; settings: Δ^9-THC 3 μM; recorded 24 hrs after treatment
# GluA1, GluN2A, GluN2B = assay: Immunoblot and surface biotinylation of glutamate receptor subunits in hippocampus; format: in vivo; settings: WT mice; Δ^9-THC for 7 days
# Procedure: Western blot assay was conducted using specific antibodies (Table S1) to determine expressions of COX-2, glutamate receptor subunits, PSD-95, G-protein subunits, phosphoproteins, BACE1 and neprilysin in hippocampal tissue and/or in cultured cells as described previously (Chen et al., 2012). Surface biotinylation assays were performed to determine surface expression of glutamate receptor subunits in hippocampal slices as described previously (Fan et al., 2010).
# Surface biotinylation assays were performed in hippocampal slices as described previously (Chen et al., 2006; Fan et al., 2010). Briefly, hippocampal slices were cut at thickness of 400 μm using a vibratome from mice that received vehicle or Δ^9-THC for 7 consecutive days, and then transferred to a six-well plate and incubated on ice for 1 h in carbogenated ACSF containing 500 μM Sulfo-NHS-SS-biotin (Thermo-Pierce, Rockford, Ill.). Collected tissue was then washed three times for 5 min with ice-cold ACSF containing 10 mM glycine, and was immediately homogenized in 800 μL ice-cold lysis buffer containing 20 mM Tris-HCl, pH 7.5, 1% Triton X-100, 50 mM NaCl, 1 mM EDTA, 0.1% sodium dodecyl sulfate, and a cocktail of protease inhibitors (Sigma, St. Louis, Mo.). After incubation on ice for 30 min, the homogenate was centrifuged at 18000 g at 4° C. for 10 min. Supernatants were collected. […]
# COX-2 mRNA = COX-2 mRNA by qPCR in NG108-15 cells; format: cell-based; settings: culture transfected with the control vector; 6 hrs after Δ^9-THC
compound,measurement,setting,value
"CCCCCc1cc(O)c2c(c1)OC(C)(C)[C@@H]1CCC(C)=C[C@@H]21 [Δ^9-THC, Δ^9-tetrahydrocannabinol]",fear memory after repeated Δ^9-THC,fear memory,impaired fear memory
same,synaptic release of glutamate (mEPSCs),[1],enhanced synaptic release of glutamate
same,"total and surface expressions of GluA1, GluN2A, GluN2B (immunoblot)","GluA1, GluN2A, GluN2B",significantly decreased
same,COX-2 mRNA expression in NG108-15 cells,COX-2 mRNA,increased expression of COX-2 mRNA
